# Data published in ChEMBL document CHEMBL5375956, “Discovery of Pyrazolo[1,5-a]pyrimidine Derivative as a Novel and Selective ALKBH5 Inhibitor for the Treatment of AML” (J Med Chem, 2023).
# Active and inactive are the calls of the source. No cut-off for these calls is given here.
# Key:
# [1] = Apparent oral clearance in Sprague-Dawley rat at 10 mg/kg, po measured for 1 to 1440 mins by LC-MS/MS analysis; assay type: ADME, organism-based; conditions: in vivo, time 1-1440 min
# RNA demethylase ALKBH5 [2] = molecular target: T1, RNA demethylase ALKBH5 (Homo sapiens, UniProt Q6P6C2); test: Inhibition of ALKBH5 in human MOLM-13 cells assessed as increase in m6A RNA level by dot blot assay; assay type: cell-based; conditions: dose <= 20.0 µM
# HUVEC [3] = test: Effect on c-Myc level in HUVEC cells upto 10 uM incubated for 48 hrs by Western blot analysis; assay type: functional, cell-based; conditions: Homo sapiens
# MOLM-13 [4] = test: Downregulation of c-Myc level in human MOLM-13 cells upto 10 uM incubated for 48 hrs by Western blot analysis; assay type: functional, cell-based
# MV4-11 [5] = test: Downregulation of TACC3 mRNA level in human MV4-11 cells assessed as half life of expression at 20 umol/L incubated for 24 hrs by qRT-PCR analysis (reference value: 2.63 hrs); assay type: functional, cell-based; conditions: dose 20.0 µmol/L
# MOLM-13 [6] = test: Induction of apoptosis in human MOLM-13 cells assessed as late apoptosis cells at 5 uM incubated for 48 hrs by Annexin V-FITC/PI staining based flow cytometry (reference value: 6.49 %); assay type: functional
# HUVEC [7] = test: Antiproliferative activity against HUVEC cells assessed as inhibition of cell proliferation incubated for 72 hrs by Cell Titer Luminescence assay; assay type: functional, cell-based; conditions: Homo sapiens
# [8] = MRT in Sprague-Dawley rat at 2 mg/kg, iv measured for 1 to 1440 mins by LC-MS/MS analysis; assay type: ADME, organism-based; conditions: in vivo, time 1-1440 min
# RNA demethylase ALKBH5 [9] = molecular target: T1, RNA demethylase ALKBH5; test: Inhibition of ALKBH5 in human MOLM-13 cells assessed as increase in m6A mRNA methylation level at 20 uM incubated for 48 hrs by LC-MS/MS analysis; assay type: cell-based
# MOLM-13 [10] = test: Induction of apoptosis in human MOLM-13 cells assessed as early apoptosis cells at 5 uM incubated for 48 hrs by Annexin V-FITC/PI staining based flow cytometry (reference value: 2.72 %); assay type: functional
# HUVEC [11] = test: Effect on TACC3 mRNA level in HUVEC cells at 5 to 10 uM incubated for 48 hrs by qRT-PCR analysis; assay type: functional, cell-based; conditions: Homo sapiens, dose 5-10 µM
# MOLM-13 [12] = test: Induction of apoptosis in human MOLM-13 cells assessed as necrotic cells at 5 uM incubated for 48 hrs by Annexin V-FITC/PI staining based flow cytometry (reference value: 1.00 %); assay type: functional
# MOLM-13 [13] = test: Induction of cell cycle arrest at […] phase in human MOLM-13 cells at 20 uM incubated for 48 hrs by […]PI staining based flow cytometry; assay type: functional
# [14] = Oral bioavailability in Sprague-Dawley rat at 10 mg/kg measured for 1 to 1440 mins by LC-MS/MS analysis; assay type: ADME, organism-based; conditions: in vivo, time 1-1440 min
# [15] = Toxicity in nude mouse xenografted with human MV4-11 cells assessed as spleen weight change at 10 to 40 mg/kg, ip treated every day for 14 days; assay type: organism-based; conditions: in vivo, 336 h, dose 10-40 mg/kg, time 14 day
# MV4-11 [16] = test: Downregulation of c-Myc level in human MV4-11 cells upto 10 uM incubated for 48 hrs by Western blot analysis; assay type: functional, cell-based
# [17] = AUC (0 to infinity) in Sprague-Dawley rat at 2 mg/kg, iv measured for 1 to 1440 mins by LC-MS/MS analysis; assay type: ADME, organism-based; conditions: in vivo
# MOLM-13 [18] = test: Induction of apoptosis in human MOLM-13 cells assessed as viable cells at 5 uM incubated for 48 hrs by Annexin V-FITC/PI staining based flow cytometry (reference value: 89.8 %); assay type: functional; conditions: read-out: Activity
# MV4-11 [19] = test: Antiproliferative activity against human MV4-11 cells assessed as inhibition of cell proliferation incubated for 72 hrs by Cell Titer Luminescence assay; assay type: functional, cell-based; conditions: MV4-11, 72 h
# [20] = Metabolic stability in rat liver microsomes assessed as half life measured upto 240 mins by LC-MS/MS analysis; assay type: ADME, Microsome
# HEK293 [21] = test: Effect on TACC3 mRNA level in HEK293 cells at 5 to 10 uM incubated for 48 hrs by qRT-PCR analysis; assay type: functional, cell-based; conditions: Homo sapiens, dose 5-10 µM
# [22] = molecular target: T2, Alpha-ketoglutarate-dependent dioxygenase FTO (Homo sapiens, UniProt Q9C0B1); test: Inhibition of FTO (32 to 505 residues)(unknown origin) expressed in Escherichia coli BL21(DE3) using 5'-TAGACATTGCCATTCTCGATAGG(m6A)-TCCGGTCAAACCTAGACGAATTCCA-3' as substrate at 100 uM incubated for 2 hrs by restriction endonuclease digestion assay
# RNA demethylase ALKBH5 [23] = molecular target: T1, RNA demethylase ALKBH5; test: Inhibition of ALKBH5 in HEK293 cells assessed as increase in m6A RNA level at 10 to 40 uM by colorimetric assay; assay type: cell-based; conditions: dose 10-40 µM
# MV4-11 [24] = test: Antitumor activity against human MV4-11 cells xenografted in nude mouse assessed as tumor growth inhibition at 20 mg/kg, ip treated every day for 14 days relative to control; assay type: functional; conditions: MV4-11, 336 h, time 14 day, read-out: TGI
# MV4-11 [25] = test: Induction of apoptosis in human MV4-11 cells assessed as necrotic cells at 5 uM incubated for 48 hrs by Annexin V-FITC/PI staining based flow cytometry (reference value: 1.81 %); assay type: functional
# MV4-11 [26] = test: Downregulation of c-Myc mRNA level in human MV4-11 cells at 5 to 10 uM incubated for 48 hrs by qRT-PCR analysis; assay type: functional, cell-based; conditions: dose 5-10 µM
# HEK293 [27] = test: Antiproliferative activity against HEK293 cells assessed as inhibition of cell proliferation incubated for 72 hrs by Cell Titer Luminescence assay; assay type: functional, cell-based; conditions: Homo sapiens, HEK293, 72 h
# RNA demethylase ALKBH5 [28] = molecular target: T1, RNA demethylase ALKBH5; test: Inhibition of ALKBH5 in human MOLM-13 cells assessed as increase in m6A RNA level by colorimetric assay; assay type: cell-based; conditions: dose 10-20 µM
# [29] = molecular target: T2, Alpha-ketoglutarate-dependent dioxygenase FTO; test: Binding affinity to NT-647-NHS fluorescent dye-labeled FTO (32 to 505 residues)(unknown origin) expressed in Escherichia coli BL21(DE3) using m6A-ssDNA as substrate incubated for 15 mins by MST assay
# [30] = Toxicity in nude mouse xenografted with human MV4-11 cells assessed as lung weight change at 10 to 40 mg/kg, ip treated every day for 14 days; assay type: organism-based; conditions: in vivo, 336 h, dose 10-40 mg/kg, time 14 day
# [31] = Half life in Sprague-Dawley rat at 2 mg/kg, iv measured for 1 to 1440 mins by LC-MS/MS analysis; assay type: ADME, organism-based; conditions: in vivo, time 1-1440 min
# [32] = Toxicity in nude mouse xenografted with human MV4-11 cells assessed as kidney damage at 10 to 40 mg/kg, ip treated every day for 14 days by H and E staining based analysis; assay type: organism-based; conditions: in vivo, 336 h, dose 10-40 mg/kg, time 14 day
# MOLM-13 [33] = test: Induction of apoptosis in human MOLM-13 cells assessed as necrotic cells at 10 uM incubated for 48 hrs by Annexin V-FITC/PI staining based flow cytometry (reference value: 1.00 %); assay type: functional
# MV4-11 [34] = test: Induction of apoptosis in human MV4-11 cells assessed as necrotic cells at 10 uM incubated for 48 hrs by Annexin V-FITC/PI staining based flow cytometry (reference value: 1.81 %); assay type: functional
# MOLM-13 [35] = test: Downregulation of TACC3 mRNA level in human MOLM-13 cells at 5 to 10 uM incubated for 48 hrs by qRT-PCR analysis; assay type: functional, cell-based; conditions: dose 5-10 µM
# HUVEC [36] = test: Effect on TACC3 level in HUVEC cells upto 10 uM incubated for 48 hrs by Western blot analysis; assay type: functional, cell-based; conditions: Homo sapiens
# T1 sequence (Q6P6C2 2-394 limits assumed): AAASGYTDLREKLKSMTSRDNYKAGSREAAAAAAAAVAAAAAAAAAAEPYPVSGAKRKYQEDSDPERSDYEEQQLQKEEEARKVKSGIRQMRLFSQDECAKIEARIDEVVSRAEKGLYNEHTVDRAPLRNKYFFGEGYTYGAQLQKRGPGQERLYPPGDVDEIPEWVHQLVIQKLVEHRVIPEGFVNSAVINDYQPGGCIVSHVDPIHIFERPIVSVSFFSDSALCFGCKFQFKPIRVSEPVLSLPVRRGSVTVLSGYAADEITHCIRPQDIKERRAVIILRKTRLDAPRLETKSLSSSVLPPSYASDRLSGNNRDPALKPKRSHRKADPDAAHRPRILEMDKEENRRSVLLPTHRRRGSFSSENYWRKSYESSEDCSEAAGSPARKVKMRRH
# T2 sequence (Q9C0B1 whole entry, looked up, the tested form may be a part): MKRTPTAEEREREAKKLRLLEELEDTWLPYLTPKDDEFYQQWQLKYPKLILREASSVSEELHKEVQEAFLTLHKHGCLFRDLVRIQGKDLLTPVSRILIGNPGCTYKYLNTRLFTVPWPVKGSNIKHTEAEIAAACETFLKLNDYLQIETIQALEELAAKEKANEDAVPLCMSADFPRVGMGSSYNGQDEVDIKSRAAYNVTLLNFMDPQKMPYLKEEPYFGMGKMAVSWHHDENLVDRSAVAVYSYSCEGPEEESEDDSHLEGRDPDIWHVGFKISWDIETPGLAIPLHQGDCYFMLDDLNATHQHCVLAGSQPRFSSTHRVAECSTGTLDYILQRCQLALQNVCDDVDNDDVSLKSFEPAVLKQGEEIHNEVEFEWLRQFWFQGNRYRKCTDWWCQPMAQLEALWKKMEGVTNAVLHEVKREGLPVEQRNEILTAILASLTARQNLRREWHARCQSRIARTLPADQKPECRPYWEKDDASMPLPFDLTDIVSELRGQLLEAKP
structure (smiles),measurement,setting,value
O=C(OCc1ccc(C(F)(F)F)cc1)c1ccc(-c2cc3ncc(C(=O)c4c(O)ccc([N+](=O)[O-])c4O)cn3n2)cc1,CL/F,[1],28.8 mL/min/kg
same,inhibition,RNA demethylase ALKBH5 [2],Dose-Dependent Effect
same,Activity,HUVEC [3],inactive
same,Activity,MOLM-13 [4],Active
same,T1/2,MV4-11 [5],118 min
same,Activity,MOLM-13 [6],16.5%
same,IC50,HUVEC [7],165 µM
same,MRT,[8],77.8 min
same,inhibition,RNA demethylase ALKBH5 [9],Active
same,Activity,MOLM-13 [10],2.91%
same,Activity,HUVEC [11],inactive
same,Activity,MOLM-13 [12],3.37%
same,Activity,MOLM-13 [13],Active
same,bioavailability,[14],17.3%
same,Activity,[15],Non-Toxic
same,Activity,MV4-11 [16],Active
same,AUC(0-inf),[17],6740 ng·h/mL
same,viability at 5 µM,MOLM-13 [18],77.2%
same,IC50,MV4-11 [19],1.2 µM
same,half-life,[20],13.8 min
same,Activity,HEK293 [21],inactive
same,inhibition,[22],inactive
same,inhibition,RNA demethylase ALKBH5 [23],Active
same,inhibition in vivo at 20 mg/kg,MV4-11 [24],68.9%
same,Activity,MV4-11 [25],3.62%
same,Activity,MV4-11 [26],Active
same,IC50,HEK293 [27],97.4 µM
same,inhibition,RNA demethylase ALKBH5 [28],Dose-Dependent Effect
same,Activity,[29],inactive
same,Activity,[30],Non-Toxic
same,half-life,[31],36.7 min
same,Activity,[32],Non-Toxic
same,Activity,MOLM-13 [33],4.14%
same,Activity,MV4-11 [34],2.15%
same,Activity,MOLM-13 [35],Active
same,Activity,HUVEC [36],inactive
